Experimental findings from patent publication US20200368260A1, “USE OF BENZOPYRAN COMPOUND IN PREPARATION OF PRODUCT FOR REGULATING LIPID METABOLISM AND COMPOSITION OF THE SAME” (priority 2019, published 2020) are described below.

Each structure is given as a SMILES string.

Test [1] relates to high-fat HepG2 cells. In words: Cellular alanine aminotransferase (ALT) content, ALT kit. It counts as cell-based, human. The following applies: for level of ALT in a high fat cell: FIGS. 4C, 5C; for level of ALT, compared with control group and low dose group: medium and high doses. Here is the method:
(§1) 2. The culture, model establishment and experimental steps of the cells were operated according to the above steps. The anthocyanin compound mother liquor was diluted to 0, 0.1, 1, 10, 50, and 100 μM to treat the high-fat HepG2 cells, respectively.
(§2) 3. The culture solution was pipetted off, gently washed with PBS for 3 times, and added with trypsin to digest the cells for 1 min The cell suspension was pipetted into a 1.5 mL sterile EP tube, centrifuged at 1000 rpm for 10 minutes, the supernatant was discarded, the pellet was added with an appropriate amount of PBS, ultrasonically crushed under the condition of an ice-water bath, and the prepared homogenate was not centrifuged and was ready for determination.
The intracellular alanine aminotransferase (ALT) content was determined according to the operating instructions of an ALT kit.

Test [2] has as its system high-fat HepG2 cells. In words: Triglyceride (TG) content of the cells, TG kit. Type of test: cell-based, human. As to conditions: for level of TG in a high fat cell: FIGS. 4B, 5B; for level of TG, compared with control group and low dose group: medium and high doses. How it is done:
as §1, §2
The intracellular triglyceride content was determined according to the operating instructions of a triglyceride (TG) kit. The protein content in the cells was determined by a BCA protein concentration kit, and the triglyceride content in the cells was calibrated with the protein content.

`COc1cc(-c2[o+]c3cc(O)cc(O)c3cc2O[C@@H]2O[C@H](CO)[C@@H](O)[C@H](O)[C@H]2O)cc(O)c1O` [petunidin-3-O-β-D glucoside]: in the test with high-fat HepG2 cells [1], the “level of ALT in a high fat cell” value is listed as “reduce”; the “level of ALT, compared with control group and low dose group” value was “very significant reduction”. In the test with high-fat HepG2 cells [2], the “level of TG in a high fat cell” value is given as “reduce”; the “level of TG, compared with control group and low dose group” value is reported as “very significant reduction”.
Turning to `COc1cc(-c2[o+]c3cc(O)cc(O)c3cc2O[C@@H]2O[C@H](CO)[C@@H](O)[C@H](O)[C@H]2O)cc(OC)c1O` [malvidin-3-O-β-D glucoside], in the test on high-fat HepG2 cells [1], the “level of ALT in a high fat cell” value is recorded as “reduce”; the “level of ALT, compared with control group and low dose group” value was “very significant reduction”. Besides, in the test with high-fat HepG2 cells [2], the “level of TG in a high fat cell” value is “reduce”; the “level of TG, compared with control group and low dose group” value was “very significant reduction”.
